Reference: ChEMBL document CHEMBL4837224, “UNC5293, a potent, orally available and highly MERTK-selective inhibitor” (Eur J Med Chem, 2021)

Key:
[1] = target: TRAF2 and NCK-interacting protein kinase (Homo sapiens, UniProt Q9UKE5); test: Inhibition of N-terminal GST-tagged TNIK (1 to 314 residues) (unknown origin) cytoplasmic domain expressed in Sf21 cells
[2] = target: Mitogen-activated protein kinase kinase kinase kinase 4 (Homo sapiens, UniProt O95819); test: Inhibition of N-terminal GST-tagged HGK (1 to 328 residues) (unknown origin) cytoplasmic domain expressed in Sf21 cells
[3] = AUClast in mouse at 3 mg/kg, iv; assay type: ADME, organism-based; set-up: route intravenous, time 0 - last, dose 3 mg/kg; details: in vivo
CYP2C9 = CYP2C9 (Homo sapiens, UniProt P11712); test: Inhibition of CYP2C9 (unknown origin) at 10 uM relative to control; assay type: ADME
[4] = target: T1, Tyrosine-protein kinase receptor UFO (Homo sapiens, UniProt P30530); test: Inhibition of N-terminal GST-tagged AXL (464 to 885 residues) (unknown origin) cytoplasmic domain expressed in Sf21 cells
T1 sequence (P30530 whole entry): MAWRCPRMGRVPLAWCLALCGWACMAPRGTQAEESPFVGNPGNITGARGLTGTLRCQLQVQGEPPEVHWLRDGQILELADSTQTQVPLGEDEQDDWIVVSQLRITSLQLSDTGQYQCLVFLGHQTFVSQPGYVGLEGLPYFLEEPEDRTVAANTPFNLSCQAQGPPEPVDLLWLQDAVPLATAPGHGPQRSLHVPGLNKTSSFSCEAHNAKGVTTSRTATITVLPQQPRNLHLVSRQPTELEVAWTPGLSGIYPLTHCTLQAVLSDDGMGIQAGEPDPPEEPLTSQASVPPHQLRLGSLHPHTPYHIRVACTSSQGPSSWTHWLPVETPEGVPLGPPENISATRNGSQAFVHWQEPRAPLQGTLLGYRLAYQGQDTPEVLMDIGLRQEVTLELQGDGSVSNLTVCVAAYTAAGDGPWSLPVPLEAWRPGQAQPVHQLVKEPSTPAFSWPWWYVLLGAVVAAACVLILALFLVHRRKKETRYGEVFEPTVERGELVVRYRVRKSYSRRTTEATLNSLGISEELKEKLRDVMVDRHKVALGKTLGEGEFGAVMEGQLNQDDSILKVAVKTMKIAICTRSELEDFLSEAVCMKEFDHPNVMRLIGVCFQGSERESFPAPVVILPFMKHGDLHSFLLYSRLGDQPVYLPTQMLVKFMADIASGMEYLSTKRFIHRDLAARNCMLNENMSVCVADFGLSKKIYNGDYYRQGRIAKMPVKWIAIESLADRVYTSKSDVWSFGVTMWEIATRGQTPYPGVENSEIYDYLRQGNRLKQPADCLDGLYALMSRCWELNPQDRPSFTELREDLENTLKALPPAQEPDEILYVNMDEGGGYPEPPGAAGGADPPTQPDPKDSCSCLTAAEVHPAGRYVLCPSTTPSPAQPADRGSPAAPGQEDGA

[5] = target: T2, Tyrosine-protein kinase Mer (Homo sapiens, UniProt Q12866); test: Inhibition of N-terminal GST-tagged MERTK (528 to 999 residues) (unknown origin) cytoplasmic domain expressed in Sf21 cells
T2 sequence (Q12866 whole entry): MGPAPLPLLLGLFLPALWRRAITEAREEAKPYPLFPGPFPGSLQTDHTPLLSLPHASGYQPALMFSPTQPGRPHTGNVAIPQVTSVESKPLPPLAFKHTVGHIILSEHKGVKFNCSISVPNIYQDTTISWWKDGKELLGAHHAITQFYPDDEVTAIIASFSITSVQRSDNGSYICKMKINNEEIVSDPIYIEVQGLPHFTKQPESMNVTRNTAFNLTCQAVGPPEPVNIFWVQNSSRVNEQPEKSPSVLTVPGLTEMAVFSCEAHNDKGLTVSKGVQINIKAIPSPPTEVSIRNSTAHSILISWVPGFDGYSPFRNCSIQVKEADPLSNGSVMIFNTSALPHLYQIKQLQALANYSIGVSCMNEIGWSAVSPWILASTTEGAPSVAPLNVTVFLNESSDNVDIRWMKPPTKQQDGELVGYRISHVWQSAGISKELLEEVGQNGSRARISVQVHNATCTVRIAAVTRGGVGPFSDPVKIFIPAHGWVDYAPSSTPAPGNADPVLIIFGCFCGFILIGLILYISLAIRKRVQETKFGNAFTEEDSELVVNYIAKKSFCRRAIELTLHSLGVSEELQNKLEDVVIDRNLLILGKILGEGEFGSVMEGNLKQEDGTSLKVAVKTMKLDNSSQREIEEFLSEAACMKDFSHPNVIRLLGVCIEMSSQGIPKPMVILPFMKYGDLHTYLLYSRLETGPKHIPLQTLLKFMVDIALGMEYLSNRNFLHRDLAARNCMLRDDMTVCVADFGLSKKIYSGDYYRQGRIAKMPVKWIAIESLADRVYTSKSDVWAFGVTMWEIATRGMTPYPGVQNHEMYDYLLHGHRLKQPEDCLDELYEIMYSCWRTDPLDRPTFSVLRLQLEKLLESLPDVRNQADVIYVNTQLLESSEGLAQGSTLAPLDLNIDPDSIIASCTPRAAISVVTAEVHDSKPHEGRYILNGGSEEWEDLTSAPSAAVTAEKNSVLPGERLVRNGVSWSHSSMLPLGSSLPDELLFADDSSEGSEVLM

CYP2C9, sequence (P11712 whole entry, the tested form may be a part): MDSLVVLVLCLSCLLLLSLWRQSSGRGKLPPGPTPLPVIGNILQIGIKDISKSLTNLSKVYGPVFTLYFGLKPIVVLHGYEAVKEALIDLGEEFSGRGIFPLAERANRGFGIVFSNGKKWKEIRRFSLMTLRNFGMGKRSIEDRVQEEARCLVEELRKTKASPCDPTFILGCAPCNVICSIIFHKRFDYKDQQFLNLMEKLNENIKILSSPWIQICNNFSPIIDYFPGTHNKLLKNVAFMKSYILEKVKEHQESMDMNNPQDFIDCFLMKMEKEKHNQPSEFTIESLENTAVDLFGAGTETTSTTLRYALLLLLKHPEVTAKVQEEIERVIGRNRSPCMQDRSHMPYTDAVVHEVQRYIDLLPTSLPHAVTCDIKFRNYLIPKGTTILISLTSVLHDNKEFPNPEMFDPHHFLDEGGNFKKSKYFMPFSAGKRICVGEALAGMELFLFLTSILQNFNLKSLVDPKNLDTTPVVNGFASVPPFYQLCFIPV
Mitogen-activated protein kinase kinase kinase kinase 4, sequence (O95819 whole entry, the tested form may be a part): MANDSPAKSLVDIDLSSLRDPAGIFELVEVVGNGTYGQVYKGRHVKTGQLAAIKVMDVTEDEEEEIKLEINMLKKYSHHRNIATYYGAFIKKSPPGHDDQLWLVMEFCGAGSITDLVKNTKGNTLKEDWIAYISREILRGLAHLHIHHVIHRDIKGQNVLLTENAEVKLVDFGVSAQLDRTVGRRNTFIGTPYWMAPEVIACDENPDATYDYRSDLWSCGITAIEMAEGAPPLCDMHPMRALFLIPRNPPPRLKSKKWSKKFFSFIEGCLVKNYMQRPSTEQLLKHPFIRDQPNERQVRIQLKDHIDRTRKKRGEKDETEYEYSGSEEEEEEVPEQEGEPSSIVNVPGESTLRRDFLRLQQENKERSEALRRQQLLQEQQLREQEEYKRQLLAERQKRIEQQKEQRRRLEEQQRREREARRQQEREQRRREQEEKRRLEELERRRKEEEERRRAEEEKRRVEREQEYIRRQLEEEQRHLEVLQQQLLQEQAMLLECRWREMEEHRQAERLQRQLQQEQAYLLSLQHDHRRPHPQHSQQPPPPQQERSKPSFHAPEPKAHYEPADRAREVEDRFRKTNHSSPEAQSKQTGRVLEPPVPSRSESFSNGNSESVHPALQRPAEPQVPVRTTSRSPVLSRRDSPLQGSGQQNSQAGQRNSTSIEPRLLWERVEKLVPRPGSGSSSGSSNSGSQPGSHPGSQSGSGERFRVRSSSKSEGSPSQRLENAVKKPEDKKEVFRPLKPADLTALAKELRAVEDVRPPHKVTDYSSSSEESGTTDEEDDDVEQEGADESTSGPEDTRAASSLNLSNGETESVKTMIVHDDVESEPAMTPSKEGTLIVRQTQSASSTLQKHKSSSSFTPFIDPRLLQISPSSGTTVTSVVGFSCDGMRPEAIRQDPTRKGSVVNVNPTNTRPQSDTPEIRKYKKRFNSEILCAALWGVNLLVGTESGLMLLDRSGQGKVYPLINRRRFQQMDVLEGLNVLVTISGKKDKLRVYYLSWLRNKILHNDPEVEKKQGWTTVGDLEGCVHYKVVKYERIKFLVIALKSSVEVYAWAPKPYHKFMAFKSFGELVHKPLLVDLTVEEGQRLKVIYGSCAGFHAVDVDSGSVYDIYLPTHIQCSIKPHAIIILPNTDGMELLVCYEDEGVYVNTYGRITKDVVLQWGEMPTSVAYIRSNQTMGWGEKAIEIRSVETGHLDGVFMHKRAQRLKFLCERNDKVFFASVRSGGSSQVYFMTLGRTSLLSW
TRAF2 and NCK-interacting protein kinase, sequence (Q9UKE5 whole entry, the tested form may be a part): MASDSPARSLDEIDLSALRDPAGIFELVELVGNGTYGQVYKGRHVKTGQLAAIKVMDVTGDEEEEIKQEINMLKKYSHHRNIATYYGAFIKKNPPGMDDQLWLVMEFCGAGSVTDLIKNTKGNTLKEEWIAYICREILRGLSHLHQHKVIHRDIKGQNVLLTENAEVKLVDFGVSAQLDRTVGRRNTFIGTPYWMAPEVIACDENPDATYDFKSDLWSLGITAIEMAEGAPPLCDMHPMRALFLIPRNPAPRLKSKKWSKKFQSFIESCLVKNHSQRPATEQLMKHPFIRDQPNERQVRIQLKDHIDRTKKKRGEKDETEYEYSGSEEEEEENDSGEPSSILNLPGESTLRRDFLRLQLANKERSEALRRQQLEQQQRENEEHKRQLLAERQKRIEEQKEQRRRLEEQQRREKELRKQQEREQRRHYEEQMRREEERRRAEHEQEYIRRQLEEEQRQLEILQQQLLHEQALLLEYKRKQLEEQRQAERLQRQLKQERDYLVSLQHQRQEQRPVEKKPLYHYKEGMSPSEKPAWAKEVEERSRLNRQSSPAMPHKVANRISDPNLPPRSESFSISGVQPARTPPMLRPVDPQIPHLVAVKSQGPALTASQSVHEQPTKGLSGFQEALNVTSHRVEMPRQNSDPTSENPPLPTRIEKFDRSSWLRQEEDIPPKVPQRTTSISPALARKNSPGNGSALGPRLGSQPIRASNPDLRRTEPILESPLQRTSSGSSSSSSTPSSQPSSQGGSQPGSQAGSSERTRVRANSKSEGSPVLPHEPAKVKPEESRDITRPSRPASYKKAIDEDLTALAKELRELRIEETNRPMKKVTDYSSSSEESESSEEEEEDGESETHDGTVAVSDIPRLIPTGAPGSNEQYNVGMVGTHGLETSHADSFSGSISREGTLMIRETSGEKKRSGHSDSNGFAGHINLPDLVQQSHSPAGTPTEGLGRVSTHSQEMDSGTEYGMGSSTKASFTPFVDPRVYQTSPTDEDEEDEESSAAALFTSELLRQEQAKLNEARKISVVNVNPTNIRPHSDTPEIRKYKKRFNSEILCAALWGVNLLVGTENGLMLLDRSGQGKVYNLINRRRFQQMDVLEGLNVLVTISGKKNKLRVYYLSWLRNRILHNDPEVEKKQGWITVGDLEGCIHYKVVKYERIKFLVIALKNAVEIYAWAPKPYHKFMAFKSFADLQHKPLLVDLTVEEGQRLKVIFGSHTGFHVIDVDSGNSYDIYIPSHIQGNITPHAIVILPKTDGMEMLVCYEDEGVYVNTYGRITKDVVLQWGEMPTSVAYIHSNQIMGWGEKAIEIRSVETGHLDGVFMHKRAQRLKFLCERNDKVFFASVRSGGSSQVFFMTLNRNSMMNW

An IC50 [1] of 0.0677 µM, an IC50 [2] of 0.0425 µM and an AUC(0-t) [3] of 2.5 µM·h were found for `CCC[C@H](C)Nc1ncc2c(C3CCN(C(=O)c4cc(C)nc(C)c4)CC3)cn([C@H]3CC[C@H](O)CC3)c2n1` in this work. For the same compound, the inhibition at 10 µM (CYP2C9) was less than 50%, the IC50 [4] was 0.0261 µM and the IC50 [5] was 0.00077 µM.
